Experimental data reported in patent US20170190671A1, “BIS(ARYL)CATECHOL DERIVATIVES AS HERBICIDES” (E I DU PONT DE NEMOURS AND COMPANY, priority 2014, published 2017).

Assays:
Assay in all cases: Test E preemergence
Assay type in all cases: in vivo
Conditions in all cases: scale 0 to 100
[1] = tested on: Brazilian crabgrass (Digitaria horizontalis)
Description: (§1) Seeds of plant species selected from corn (Zea mays), soybean (Glycine max), velvetleaf (Abutilon theophrasti), cocklebur (common cocklebur, Xanthium strumarium), lambsquarters (Chenopodium album), wild poinsettia (Euphorbia heterophylla), palmer pigweed (Amaranthus palmeri), waterhemp (common waterhemp, Amaranthus rudis), surinam grass (Brachiaria decumbens), large (Lg) crabgrass (Digitaria sanguinalis), Brazilian crabgrass (Digitaria horizontalis), fall panicum (Panicum dichotomiflorum), giant foxtail (Setaria faberii), green foxtail (Setaria viridis), goosegrass (Eleusine indica), johnsongrass (Sorghum halepense), ragweed (common ragweed, Ambrosia elatior), barnyardgrass (Echinochloa crus-galli), sandbur (southern sandbur, Cenchrus echinatus), arrowleaf sida (Sida rhombifolia), Italian ryegrass (Lolium multiflorum), dayflower (Virginia (VA) dayflower, Commelina virginica), field bindweed (Convolvulus arvensis), morningglory (Ipomoea coccinea), nightshade (eastern black nightshade, Solanum ptycanthum), kochia (Kochia scoparia), yellow nutsedge (Cyperus esculentus), horseweed (Conyza canadensis), and hairy beggarticks (Bidens pilosa), were planted into a silt loam soil and treated preemergence with test chemicals formulated in a non-phytotoxic solvent mixture which included a surfactant.
(§2) At the same time, plants from these crop and weed species and also waterhemp_RES1, (ALS & Triazine resistant common waterhemp, Amaranthus rudis), and waterhemp_RES2, (ALS & HPPD resistant common waterhemp, Amaranthus rudis) were planted in pots containing Redi-Earth® planting medium (Scotts Company, 14111 Scottslawn Road, Marysville, Ohio 43041) comprising spaghnum peat moss, vermiculite, wetting agent and starter nutrients were treated with postemergence applications of test chemicals formulated in the same manner. Plants ranged in height from 2 to 18 cm for postemergence treatments (1- to 4-leaf stage). Treated plants and controls were maintained in a greenhouse for 14 to 21 days, after which time all species were compared to controls and visually evaluated. Plant response ratings, summarized in Table E, are based on a scale of 0 to 100 where 0 is no effect and 100 is complete control. A dash (-) response means no test result.

[2] = tested on: Italian ryegrass (Lolium multiflorum)
Description: as §1, §2

[3] = tested on: arrowleaf sida (Sida rhombifolia)
Description: as §1, §2

[4] = tested on: barnyardgrass (Echinochloa crus-galli)
Description: as §1, §2

[5] = tested on: corn (Zea mays)
Description: as §1, §2

[6] = tested on: dayflower (Virginia (VA) dayflower, Commelina virginica)
Description: as §1, §2

[7] = tested on: fall panicum (Panicum dichotomiflorum)
Description: as §1, §2

[8] = tested on: giant foxtail (Setaria faberii)
Description: as §1, §2

[9] = tested on: goosegrass (Eleusine indica)
Description: as §1, §2

[10] = tested on: green foxtail (Setaria viridis)
Description: as §1, §2

[11] = tested on: hairy beggarticks (Bidens pilosa)
Description: as §1, §2

[12] = tested on: lambsquarters (Chenopodium album)
Description: as §1, §2

[13] = tested on: large (Lg) crabgrass (Digitaria sanguinalis)
Description: as §1, §2

[14] = tested on: morningglory (Ipomoea coccinea)
Description: as §1, §2

[15] = tested on: nightshade (eastern black nightshade, Solanum ptycanthum)
Description: as §1, §2

[16] = tested on: ragweed (common ragweed, Ambrosia elatior)
Description: as §1, §2

[17] = tested on: sandbur (southern sandbur, Cenchrus echinatus)
Description: as §1, §2

[18] = tested on: soybean (Glycine max)
Description: as §1, §2

[19] = tested on: velvetleaf (Abutilon theophrasti)
Description: as §1, §2

[20] = tested on: waterhemp (common waterhemp, Amaranthus rudis)
Description: as §1, §2

[21] = tested on: yellow nutsedge (Cyperus esculentus)
Description: as §1, §2

`Fc1cccc(Oc2ncc(Cl)cn2)c1Oc1ncc(Cl)cn1` [Compound 21, 2,2′-[[3-fluoro-1,2-phenylene]bis(oxy)]bis[5-chloropyrimidine]] was tested. Which “Plant response rating, Crabgrass, Brazil” value ([1]; 16 g ai/ha) did it give?
The value was 0.

What about the “Plant response rating, Crabgrass, Brazil” value ([1]; 31 g ai/ha) of the same compound?
The value was 65.

And the “Plant response rating, Crabgrass, Brazil” value ([1]; 62 g ai/ha)?
The value was 100.

What about the “Plant response rating, Crabgrass, Brazil” value ([1]; 125 g ai/ha) of the same compound?
Its value is 100.

And the “Plant response rating, Ryegrass, Italian” value ([2]; 16 g ai/ha)?
Its value is 0.

What about the “Plant response rating, Ryegrass, Italian” value ([2]; 31 g ai/ha) of the same compound?
Its value is 0.

What about the “Plant response rating, Ryegrass, Italian” value ([2]; 62 g ai/ha) of the same compound?
The value was 35.

And the “Plant response rating, Ryegrass, Italian” value ([2]; 125 g ai/ha)?
Its value is 70.

What about the “Plant response rating, Arrowleaf Sida” value ([3]; 16 g ai/ha) of the same compound?
Its value is 90.

What about the “Plant response rating, Arrowleaf Sida” value ([3]; 31 g ai/ha) of the same compound?
The value was 100.

What about the “Plant response rating, Arrowleaf Sida” value ([3]; 62 g ai/ha) of the same compound?
The value was 100.

What about the “Plant response rating, Arrowleaf Sida” value ([3]; 125 g ai/ha) of the same compound?
The value was 100.

And the “Plant response rating, Barnyardgrass” value ([4]; 16 g ai/ha)?
The value was 15.

What about the “Plant response rating, Barnyardgrass” value ([4]; 31 g ai/ha) of the same compound?
Its value is 20.

And the “Plant response rating, Barnyardgrass” value ([4]; 62 g ai/ha)?
The value was 65.

And the “Plant response rating, Barnyardgrass” value ([4]; 125 g ai/ha)?
Its value is 100.

What about the “Plant response rating, Corn” value ([5]; 16 g ai/ha) of the same compound?
The value was 0.

What about the “Plant response rating, Corn” value ([5]; 31 g ai/ha) of the same compound?
The value was 0.

And the “Plant response rating, Corn” value ([5]; 62 g ai/ha)?
The value was 10.

What about the “Plant response rating, Corn” value ([5]; 125 g ai/ha) of the same compound?
Its value is 50.

And the “Plant response rating, Dayflower, VA” value ([6]; 16 g ai/ha)?
Its value is 0.

What about the “Plant response rating, Dayflower, VA” value ([6]; 31 g ai/ha) of the same compound?
The value was 0.

And the “Plant response rating, Dayflower, VA” value ([6]; 62 g ai/ha)?
Its value is 25.

What about the “Plant response rating, Dayflower, VA” value ([6]; 125 g ai/ha) of the same compound?
Its value is 95.

And the “Plant response rating, Panicum, Fall” value ([7]; 16 g ai/ha)?
The value was 35.

And the “Plant response rating, Panicum, Fall” value ([7]; 31 g ai/ha)?
The value was 75.

What about the “Plant response rating, Panicum, Fall” value ([7]; 62 g ai/ha) of the same compound?
The value was 100.

And the “Plant response rating, Panicum, Fall” value ([7]; 125 g ai/ha)?
The value was 100.

And the “Plant response rating, Foxtail, Giant” value ([8]; 16 g ai/ha)?
Its value is 5.

What about the “Plant response rating, Foxtail, Giant” value ([8]; 31 g ai/ha) of the same compound?
The value was 90.

What about the “Plant response rating, Foxtail, Giant” value ([8]; 62 g ai/ha) of the same compound?
The value was 100.

And the “Plant response rating, Foxtail, Giant” value ([8]; 125 g ai/ha)?
The value was 100.

What about the “Plant response rating, Goosegrass” value ([9]; 16 g ai/ha) of the same compound?
Its value is 10.

What about the “Plant response rating, Goosegrass” value ([9]; 31 g ai/ha) of the same compound?
The value was 50.

What about the “Plant response rating, Goosegrass” value ([9]; 62 g ai/ha) of the same compound?
The value was 75.

What about the “Plant response rating, Goosegrass” value ([9]; 125 g ai/ha) of the same compound?
Its value is 98.

And the “Plant response rating, Foxtail, Green” value ([10]; 16 g ai/ha)?
Its value is 15.

And the “Plant response rating, Foxtail, Green” value ([10]; 31 g ai/ha)?
The value was 50.

And the “Plant response rating, Foxtail, Green” value ([10]; 62 g ai/ha)?
Its value is 70.

And the “Plant response rating, Foxtail, Green” value ([10]; 125 g ai/ha)?
The value was 100.

And the “Plant response rating, Beggarticks” value ([11]; 16 g ai/ha)?
Its value is 0.

What about the “Plant response rating, Beggarticks” value ([11]; 31 g ai/ha) of the same compound?
Its value is 0.

And the “Plant response rating, Beggarticks” value ([11]; 62 g ai/ha)?
The value was 0.

What about the “Plant response rating, Beggarticks” value ([11]; 125 g ai/ha) of the same compound?
The value was 0.

What about the “Plant response rating, Lambsquarters” value ([12]; 16 g ai/ha) of the same compound?
Its value is 0.

And the “Plant response rating, Lambsquarters” value ([12]; 31 g ai/ha)?
The value was 40.

What about the “Plant response rating, Lambsquarters” value ([12]; 62 g ai/ha) of the same compound?
Its value is 100.

What about the “Plant response rating, Lambsquarters” value ([12]; 125 g ai/ha) of the same compound?
Its value is 100.

What about the “Plant response rating, Crabgrass, Large” value ([13]; 16 g ai/ha) of the same compound?
The value was 50.

And the “Plant response rating, Crabgrass, Large” value ([13]; 31 g ai/ha)?
Its value is 75.

What about the “Plant response rating, Crabgrass, Large” value ([13]; 62 g ai/ha) of the same compound?
Its value is 95.

And the “Plant response rating, Crabgrass, Large” value ([13]; 125 g ai/ha)?
Its value is 100.

And the “Plant response rating, Morningglory” value ([14]; 16 g ai/ha)?
Its value is 10.

What about the “Plant response rating, Morningglory” value ([14]; 31 g ai/ha) of the same compound?
The value was 50.

And the “Plant response rating, Morningglory” value ([14]; 62 g ai/ha)?
The value was 90.

And the “Plant response rating, Morningglory” value ([14]; 125 g ai/ha)?
Its value is 80.

And the “Plant response rating, Nightshade” value ([15]; 16 g ai/ha)?
The value was 80.

What about the “Plant response rating, Nightshade” value ([15]; 31 g ai/ha) of the same compound?
Its value is 90.

And the “Plant response rating, Nightshade” value ([15]; 62 g ai/ha)?
Its value is 98.

What about the “Plant response rating, Nightshade” value ([15]; 125 g ai/ha) of the same compound?
The value was 100.

What about the “Plant response rating, Ragweed” value ([16]; 16 g ai/ha) of the same compound?
The value was 0.

What about the “Plant response rating, Ragweed” value ([16]; 31 g ai/ha) of the same compound?
Its value is 50.

What about the “Plant response rating, Ragweed” value ([16]; 62 g ai/ha) of the same compound?
The value was 50.

What about the “Plant response rating, Ragweed” value ([16]; 125 g ai/ha) of the same compound?
Its value is 98.

What about the “Plant response rating, Sandbur” value ([17]; 16 g ai/ha) of the same compound?
The value was 0.

And the “Plant response rating, Sandbur” value ([17]; 31 g ai/ha)?
Its value is 0.

And the “Plant response rating, Sandbur” value ([17]; 62 g ai/ha)?
Its value is 15.

And the “Plant response rating, Sandbur” value ([17]; 125 g ai/ha)?
The value was 50.

What about the “Plant response rating, Soybean” value ([18]; 16 g ai/ha) of the same compound?
Its value is 0.

What about the “Plant response rating, Soybean” value ([18]; 31 g ai/ha) of the same compound?
The value was 25.

And the “Plant response rating, Soybean” value ([18]; 62 g ai/ha)?
Its value is 65.

What about the “Plant response rating, Soybean” value ([18]; 125 g ai/ha) of the same compound?
Its value is 90.

And the “Plant response rating, Velvetleaf” value ([19]; 16 g ai/ha)?
The value was 80.

What about the “Plant response rating, Velvetleaf” value ([19]; 31 g ai/ha) of the same compound?
Its value is 70.

What about the “Plant response rating, Velvetleaf” value ([19]; 62 g ai/ha) of the same compound?
Its value is 100.

And the “Plant response rating, Velvetleaf” value ([19]; 125 g ai/ha)?
The value was 100.

And the “Plant response rating, Waterhemp” value ([20]; 16 g ai/ha)?
Its value is 65.

What about the “Plant response rating, Waterhemp” value ([20]; 31 g ai/ha) of the same compound?
Its value is 80.

What about the “Plant response rating, Waterhemp” value ([20]; 62 g ai/ha) of the same compound?
Its value is 100.

What about the “Plant response rating, Waterhemp” value ([20]; 125 g ai/ha) of the same compound?
The value was 100.

And the “Plant response rating, Nutsedge, Yellow” value ([21]; 16 g ai/ha)?
The value was 0.

What about the “Plant response rating, Nutsedge, Yellow” value ([21]; 31 g ai/ha) of the same compound?
The value was 0.

And the “Plant response rating, Nutsedge, Yellow” value ([21]; 62 g ai/ha)?
The value was 0.

What about the “Plant response rating, Nutsedge, Yellow” value ([21]; 125 g ai/ha) of the same compound?
The value was 15.
